Results as given in patent publication US20100267561A1, “HERBICIDAL PYRIDAZINONE DERIVATIVES” (priority 2007, published 2010).

How the values were obtained:
Assay in all cases: Test B pre-/postemergence plant response
Assay type in all cases: in vivo
[1] = system: common ragweed (Ambrosia elation); settings: for Ragweed plant response rating: 8 g ai/ha
Procedure, shortened: (§1)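 Seeds were sown and sprayed preemergence, while plants at 2 to 18 cm (1- to 4-leaf stage) got postemergence sprays. Compounds were formulated in a non-phytotoxic solvent mixture with surfactant. After 13 to 15 days in a greenhouse, injury was rated visually against untreated controls, 0 (no effect) to 100 (complete control).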

[2] = system: soybean (Glycine max); settings: for Soybean plant response rating: 8 g ai/ha
Procedure, shortened: as §1

[3] = system: large crabgrass (Digitaria sanguinalis); settings: for Crabgrass, Large plant response rating: 8 g ai/ha
Procedure, shortened: as §1

[4] = system: catchweed bedstraw (Galium aparine); settings: Preemergence
Procedure, shortened: as §1

[5] = system: Russian thistle (Salsola iberica); settings: Preemergence
Procedure, shortened: as §1

[6] = system: pigweed (Amaranthus retroflexus); settings: for Pigweed plant response rating: 8 g ai/ha
Procedure, shortened: as §1

[7] = system: common (oilseed) sunflower (Helianthus annuus); settings: Preemergence
Procedure, shortened: as §1

[8] = system: kochia (Kochia scoparia); settings: for Kochia plant response rating: 8 g ai/ha
Procedure, shortened: as §1

[9] = system: woolly cupgrass (Eriochloa villosa); settings: for Cupgrass, Woolly plant response rating: 8 g ai/ha
Procedure, shortened: as §1

[10] = system: cocklebur (Xanthium strumarium); settings: for Cocklebur plant response rating: 8 g ai/ha
Procedure, shortened: as §1

[11] = system: downy bromegrass (Bromus tectorum); settings: for Bromegrass, Downy plant response rating: 8 g ai/ha
Procedure, shortened: as §1

[12] = system: surinam grass (Brachiaria decumbens); settings: for Surinam Grass plant response rating: 8 g ai/ha
Procedure, shortened: as §1

[13] = system: Italian ryegrass (Lolium multiflorum); settings: for Ryegrass, Italian plant response rating: 8 g ai/ha
Procedure, shortened: as §1

[14] = system: goosegrass (Eleusine indica); settings: for Goosegrass plant response rating: 8 g ai/ha
Procedure, shortened: as §1

[15] = Postemergence, 16 g ai/ha, scale 0 to 100
[16] = Postemergence, 31 g ai/ha, scale 0 to 100
[17] = Postemergence, 62 g ai/ha, scale 0 to 100, 0 no effect, 100 complete control
[18] = Preemergence, 16 g ai/ha, scale 0 to 100 (0 no effect, 100 complete control)
[19] = Preemergence, 31 g ai/ha, scale 0 to 100 (0 no effect, 100 complete control)
[20] = Preemergence, 62 g ai/ha, scale 0 to 100
[21] = Preemergence, 31 g ai/ha, 0 to 100 scale, 0 no effect, 100 complete control
[22] = 16 g ai/ha, scale 0 to 100 (0 no effect, 100 complete control)
[23] = 31 g ai/ha, scale 0 to 100 (0 no effect, 100 complete control)

## Cc1cc(-c2ccc(Cl)cc2)nn1-c1c(OC(=O)c2ccccc2)cnn(C)c1=O [Compound 48]
[1]; postemergence, 0-100 scale
  Ragweed plant response rating: 0
[1]; [15]
  Plant response rating, Ragweed: 0
[1]; [16]
  Plant response rating, Ragweed: 0
[1]; [17]
  Plant response rating, Ragweed: 0
[1]; [18]
  Plant response rating, Ragweed: 0
[1]; [19]
  Plant response rating, Ragweed: 0
[1]; [20]
  Plant response rating, Ragweed: 0
[1]; Preemergence, scale 0 to 100
  Ragweed plant response rating: 0
[2]; postemergence, 0-100 scale
  Soybean plant response rating: 0
[2]; [15]
  Plant response rating, Soybean: 0
[2]; [16]
  Plant response rating, Soybean: 0
[2]; [17]
  Plant response rating, Soybean: 0
[2]; [18]
  Plant response rating, Soybean: 0
[2]; [19]
  Plant response rating, Soybean: 0
[2]; [20]
  Plant response rating, Soybean: 0
[2]; Preemergence, scale 0 to 100
  Soybean plant response rating: 0
[3]; postemergence, 0-100 scale
  Crabgrass, Large plant response rating: 70
[3]; [15]
  Plant response rating, Crabgrass, Large: 85
[3]; [16]
  Plant response rating, Crabgrass, Large: 90
[3]; [17]
  Plant response rating, Crabgrass, Large: 100
[3]; [18]
  Plant response rating, Crabgrass, Large: 0
[3]; [21]
  Plant response rating, Crabgrass, Large: 0
[3]; [20]
  Plant response rating, Crabgrass, Large: 0
[3]; Preemergence, scale 0 to 100
  Crabgrass, Large plant response rating: 0
[4]; [22]
  Plant response rating, Galium: 0
[4]; 31 g ai/ha, 0 to 100 scale, 0 no effect, 100 complete control
  Plant response rating, Galium: 0
[5]; [22]
  Plant response rating, Russian Thistle: 0
[5]; [23]
  Plant response rating, Russian Thistle: 0
[5]; 62 g ai/ha, scale 0 to 100
  Plant response rating, Russian Thistle: 0
[5]; 8 g ai/ha, scale 0 to 100
  Russian Thistle plant response rating: 0
[6]; postemergence, 0-100 scale
  Pigweed plant response rating: 0
[6]; [15]
  Plant response rating, Pigweed: 0
[6]; [16]
  Plant response rating, Pigweed: 0
[6]; [17]
  Plant response rating, Pigweed: 0
[6]; [18]
  Plant response rating, Pigweed: 0
[6]; [19]
  Plant response rating, Pigweed: 0
[6]; [20]
  Plant response rating, Pigweed: 0
[6]; Preemergence, scale 0 to 100
  Pigweed plant response rating: 0
[7]; [22]
  Plant response rating, Sunflower: 0
[7]; [23]
  Plant response rating, Sunflower: 0
[7]; 62 g ai/ha, scale 0 to 100
  Plant response rating, Sunflower: 0
[7]; 8 g ai/ha, scale 0 to 100
  Sunflower plant response rating: 0
[8]; postemergence, 0-100 scale
  Kochia plant response rating: 0
[8]; [15]
  Plant response rating, Kochia: 0
[8]; [16]
  Plant response rating, Kochia: 0
[8]; [17]
  Plant response rating, Kochia: 0
[8]; [18]
  Plant response rating, Kochia: 0
[8]; [21]
  Plant response rating, Kochia: 0
[8]; [20]
  Plant response rating, Kochia: 0
[8]; Preemergence, scale 0 to 100
  Kochia plant response rating: 0
[9]; postemergence, 0-100 scale
  Cupgrass, Woolly plant response rating: 75
[9]; [15]
  Plant response rating, Cupgrass, Woolly: 85
[9]; [16]
  Plant response rating, Cupgrass, Woolly: 100
[9]; [17]
  Plant response rating, Cupgrass, Woolly: 100
[9]; [18]
  Plant response rating, Cupgrass, Woolly: 0
[9]; [21]
  Plant response rating, Cupgrass, Woolly: 0
[9]; [20]
  Plant response rating, Cupgrass, Woolly: 0
[9]; Preemergence, scale 0 to 100
  Cupgrass, Woolly plant response rating: 0
[10]; postemergence, 0-100 scale
  Cocklebur plant response rating: 0
[10]; [15]
  Plant response rating, Cocklebur: 0
[10]; [16]
  Plant response rating, Cocklebur: 0
[10]; [17]
  Plant response rating, Cocklebur: 0
[10]; [18]
  Plant response rating, Cocklebur: 0
[10]; [21]
  Plant response rating, Cocklebur: 0
[10]; [20]
  Plant response rating, Cocklebur: 0
[10]; Preemergence, scale 0 to 100
  Cocklebur plant response rating: 0
[11]; postemergence, 0-100 scale
  Bromegrass, Downy plant response rating: 5
[11]; [15]
  Plant response rating, Bromegrass, Downy: 50
[11]; [16]
  Plant response rating, Bromegrass, Downy: 60
[11]; [17]
  Plant response rating, Bromegrass, Downy: 90
[11]; [18]
  Plant response rating, Bromegrass, Downy: 0
[11]; [21]
  Plant response rating, Bromegrass, Downy: 70
[11]; [20]
  Plant response rating, Bromegrass, Downy: 80
[11]; Preemergence, scale 0 to 100
  Bromegrass, Downy plant response rating: 0
[12]; postemergence, 0-100 scale
  Surinam Grass plant response rating: 75
[12]; [15]
  Plant response rating, Surinam Grass: 90
[12]; [16]
  Plant response rating, Surinam Grass: 100
[12]; [17]
  Plant response rating, Surinam Grass: 100
[12]; [18]
  Plant response rating, Surinam Grass: 40
[12]; [19]
  Plant response rating, Surinam Grass: 65
[12]; Preemergence, 62 g ai/ha, 0 to 100 scale, 0 no effect, 100 complete control
  Plant response rating, Surinam Grass: 75
[12]; Preemergence, scale 0 to 100
  Surinam Grass plant response rating: 0
[13]; postemergence, 0-100 scale
  Ryegrass, Italian plant response rating: 40
[13]; [15]
  Plant response rating, Ryegrass, Italian: 90
[13]; [16]
  Plant response rating, Ryegrass, Italian: 100
[13]; [17]
  Plant response rating, Ryegrass, Italian: 100
[13]; [18]
  Plant response rating, Ryegrass, Italian: 85
[13]; [19]
  Plant response rating, Ryegrass, Italian: 100
[13]; [20]
  Plant response rating, Ryegrass, Italian: 100
[13]; Preemergence, scale 0 to 100
  Ryegrass, Italian plant response rating: 85
[14]; postemergence, 0-100 scale
  Goosegrass plant response rating: 15
[14]; [15]
  Plant response rating, Goosegrass: 65
[14]; [16]
  Plant response rating, Goosegrass: 75
[14]; [17]
  Plant response rating, Goosegrass: 95
[14]; [18]
  Plant response rating, Goosegrass: 0
[14]; [21]
  Plant response rating, Goosegrass: 0
[14]; [20]
  Plant response rating, Goosegrass: 20
[14]; Preemergence, scale 0 to 100
  Goosegrass plant response rating: 0
